From ChEMBL document CHEMBL3885881, “DrugMatrix”

Species on record: Rattus norvegicus
Assay: DrugMatrix - Regimen: Daily Repeat
Format: toxicity, organism-based, Sprague-Dawley
Design: regimen Daily Repeat, gender Male, age 6-8 weeks
Conditions: in vivo, po, route oral GAVAGE, vehicle 100 % WATER; for ABSOLUTE BASOPHIL / ABSOLUTE EOSINOPHIL / ABSOLUTE LYMPHOCYTE / ABSOLUTE MONOCYTE / ABSOLUTE SEGMENTED NEUTROPHIL / BASOPHIL / EOSINOPHIL / ERYTHROCYTE COUNT / HEMATOCRIT / HEMOGLOBIN / LEUKOCYTE COUNT / LYMPHOCYTE / MEAN CORPUSCULAR HEMOGLOBIN / MEAN CORPUSCULAR HEMOGLOBIN CONCENTRATION / MEAN CORPUSCULAR VOLUME / MONOCYTE / NEUTROPHIL / NUCLEATED RED BLOOD CELLS / PLATELET COUNT: tissue Blood; for ALANINE AMINOTRANSFERASE / ALBUMIN / ALKALINE PHOSPHATASE / ASPARTATE AMINOTRANSFERASE / BLOOD UREA NITROGEN / CARBON DIOXIDE / CHLORIDE / CHOLESTEROL / CREATINE PHOSPHOKINASE / CREATININE / GLUCOSE / LACTATE DEHYDROGENASE / LIPASE / PHOSPHORUS / POTASSIUM / SODIUM / TOTAL BILIRUBIN / TOTAL PROTEIN / URIC ACID: tissue Plasma
[1] = 0 mg/kg, 72 h, dose level Control, time 3 day
[2] = 0 mg/kg, 120 h, dose level Control, time 5 day
[3] = 20 mg/kg, 72 h, dose level Low, time 3 day

CCCC(C)C1(CC)C(=O)NC(=O)NC1=O (centres undefined) [PENTOBARBITAL]
ABSOLUTE BASOPHIL [1]: 0 CELLS/uL
ABSOLUTE EOSINOPHIL [1]: 32.5 CELLS/uL
ABSOLUTE LYMPHOCYTE [1]: 9305.83 CELLS/uL
ABSOLUTE MONOCYTE [1]: 43.83 CELLS/uL
ABSOLUTE SEGMENTED NEUTROPHIL [1]: 817.83 CELLS/uL
BASOPHIL [1]: 0%
EOSINOPHIL [1]: 0.33%
ERYTHROCYTE COUNT [1]: 5.38 x10E6/uL
HEMATOCRIT [1]: 33.63%
HEMOGLOBIN [1]: 13.17 G/DL
LEUKOCYTE COUNT [1]: 10.2 x10E3/uL
LYMPHOCYTE [1]: 91.17%
MEAN CORPUSCULAR HEMOGLOBIN [1]: 24.5 pg
MEAN CORPUSCULAR HEMOGLOBIN CONCENTRATION [1]: 39.13 G/DL
MEAN CORPUSCULAR VOLUME [1]: 62.53 fL
MONOCYTE [1]: 0.5%
NEUTROPHIL [1]: 8%
NUCLEATED RED BLOOD CELLS [1]: 0.17 /100WBC
PLATELET COUNT [1]: 858 x10E3/uL
ALANINE AMINOTRANSFERASE [1]: 55.67 u/L
ALBUMIN [1]: 4.07 G/DL
ALKALINE PHOSPHATASE [1]: 337 u/L
ASPARTATE AMINOTRANSFERASE [1]: 84 u/L
BLOOD UREA NITROGEN [1]: 13.17 mg/dL
CARBON DIOXIDE [1]: 34.17 mmol/L
CHLORIDE [1]: 99.33 MEQ/L
CHOLESTEROL [1]: 78.83 mg/dL
CREATINE PHOSPHOKINASE [1]: 576.83 u/L
CREATININE [1]: 0.17 mg/dL
GLUCOSE [1]: 152.67 mg/dL
LACTATE DEHYDROGENASE [1]: 147.83 u/L
LIPASE [1]: 9.5 u/L
PHOSPHORUS [1]: 10.78 mg/dL
POTASSIUM [1]: 6.34 MEQ/L
SODIUM [1]: 144.12 MEQ/L
TOTAL BILIRUBIN [1]: 0.18 mg/dL
TOTAL PROTEIN [1]: 6.08 G/DL
URIC ACID [1]: 0.65 mg/dL
ABSOLUTE BASOPHIL [2]: 0 CELLS/uL
ABSOLUTE EOSINOPHIL [2]: 31.17 CELLS/uL
ABSOLUTE LYMPHOCYTE [2]: 7918.33 CELLS/uL
ABSOLUTE MONOCYTE [2]: 58.33 CELLS/uL
ABSOLUTE SEGMENTED NEUTROPHIL [2]: 725.5 CELLS/uL
BASOPHIL [2]: 0%
EOSINOPHIL [2]: 0.33%
ERYTHROCYTE COUNT [2]: 5.32 x10E6/uL
HEMATOCRIT [2]: 33.53%
HEMOGLOBIN [2]: 13.17 G/DL
LEUKOCYTE COUNT [2]: 8.73 x10E3/uL
LYMPHOCYTE [2]: 90.33%
MEAN CORPUSCULAR HEMOGLOBIN [2]: 24.82 pg
MEAN CORPUSCULAR HEMOGLOBIN CONCENTRATION [2]: 39.33 G/DL
MEAN CORPUSCULAR VOLUME [2]: 63.12 fL
MONOCYTE [2]: 0.67%
NEUTROPHIL [2]: 8.67%
NUCLEATED RED BLOOD CELLS [2]: 0 /100WBC
PLATELET COUNT [2]: 1144.83 x10E3/uL
ALANINE AMINOTRANSFERASE [2]: 60.5 u/L
ALBUMIN [2]: 3.97 G/DL
ALKALINE PHOSPHATASE [2]: 343.17 u/L
ASPARTATE AMINOTRANSFERASE [2]: 80.83 u/L
BLOOD UREA NITROGEN [2]: 15 mg/dL
CARBON DIOXIDE [2]: 31 mmol/L
CHLORIDE [2]: 99.75 MEQ/L
CHOLESTEROL [2]: 71.5 mg/dL
CREATINE PHOSPHOKINASE [2]: 237.17 u/L
CREATININE [2]: 0.17 mg/dL
GLUCOSE [2]: 137 mg/dL
LACTATE DEHYDROGENASE [2]: 146.17 u/L
LIPASE [2]: 11.5 u/L
PHOSPHORUS [2]: 10.13 mg/dL
POTASSIUM [2]: 6 MEQ/L
SODIUM [2]: 145 MEQ/L
TOTAL BILIRUBIN [2]: 0.13 mg/dL
TOTAL PROTEIN [2]: 5.82 G/DL
URIC ACID [2]: 0.62 mg/dL
ABSOLUTE BASOPHIL [3]: 0 CELLS/uL
ABSOLUTE EOSINOPHIL [3]: 0 CELLS/uL
ABSOLUTE LYMPHOCYTE [3]: 9302.33 CELLS/uL
ABSOLUTE MONOCYTE [3]: 108 CELLS/uL
ABSOLUTE SEGMENTED NEUTROPHIL [3]: 989.67 CELLS/uL
BASOPHIL [3]: 0%
EOSINOPHIL [3]: 0%
ERYTHROCYTE COUNT [3]: 5.3 x10E6/uL
HEMATOCRIT [3]: 32.83%
HEMOGLOBIN [3]: 12.6 G/DL
LEUKOCYTE COUNT [3]: 10.4 x10E3/uL
LYMPHOCYTE [3]: 88.33%
MEAN CORPUSCULAR HEMOGLOBIN [3]: 23.77 pg
MEAN CORPUSCULAR HEMOGLOBIN CONCENTRATION [3]: 38.37 G/DL
MEAN CORPUSCULAR VOLUME [3]: 61.97 fL
MONOCYTE [3]: 1.33%
NEUTROPHIL [3]: 10.33%
NUCLEATED RED BLOOD CELLS [3]: 0 /100WBC
PLATELET COUNT [3]: 1066.67 x10E3/uL
ALANINE AMINOTRANSFERASE [3]: 57.67 u/L
ALBUMIN [3]: 3.9 G/DL
ALKALINE PHOSPHATASE [3]: 334.33 u/L
ASPARTATE AMINOTRANSFERASE [3]: 90.67 u/L
BLOOD UREA NITROGEN [3]: 13.67 mg/dL
CARBON DIOXIDE [3]: 35.33 mmol/L
CHLORIDE [3]: 100 MEQ/L
CHOLESTEROL [3]: 80.67 mg/dL
CREATINE PHOSPHOKINASE [3]: 384.67 u/L
CREATININE [3]: 0.14 mg/dL
GLUCOSE [3]: 140 mg/dL
LACTATE DEHYDROGENASE [3]: 137 u/L
LIPASE [3]: 9 u/L
PHOSPHORUS [3]: 11.23 mg/dL
POTASSIUM [3]: 5.89 MEQ/L
SODIUM [3]: 147.3 MEQ/L
TOTAL BILIRUBIN [3]: 0.13 mg/dL
TOTAL PROTEIN [3]: 5.67 G/DL
URIC ACID [3]: 0.7 mg/dL
